Patent US7138361B2, “Herbicidal heterocycles” (E. I. du Pont de Nemours and Company, priority 2000, dated 2006)

What was measured:
Type in all cases: in vivo
[1] = test system: Surinam grass (Brachiaria decumbens); experiment: Test B postemergence; conditions: 13 to 15 days
Outline: (§1)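 Preemergence: seeds planted and treated with test chemicals in non-phytotoxic solvent with surfactant; postemergence on plants 2–18 cm (1- to 4-leaf stage). Kept in greenhouse 13–15 days, then visually rated against controls on a 0 (no effect) to 100 (complete control) scale.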

[2] = test system: barnyardgrass (Echinochloa crus-galli); experiment: Test B postemergence; conditions: 13 to 15 days
Outline: as §1

[3] = test system: blackgrass (Alopecurus myosuroides); experiment: Test B postemergence; conditions: 13 to 15 days
Outline: as §1

[4] = test system: cocklebur (Xanthium strumarium); experiment: Test B postemergence; conditions: 13 to 15 days
Outline: as §1

corn (Zea mays) [5] = experiment: Test B postemergence; conditions: 13 to 15 days
Outline: as §1

[6] = test system: crabgrass (Digitaria sanguinalis); experiment: Test B postemergence; conditions: 13 to 15 days
Outline: as §1

[7] = test system: giant foxtail (Setaria faberii); experiment: Test B postemergence; conditions: 13 to 15 days
Outline: as §1

[8] = test system: lambsquarters (Chenopodium album); experiment: Test B postemergence; conditions: 13 to 15 days
Outline: as §1

[9] = test system: morning glory (Ipomoea hederacea); experiment: Test B postemergence; conditions: 13 to 15 days
Outline: as §1

[10] = test system: pigweed (Amaranthus retroflexus); experiment: Test B postemergence; conditions: 13 to 15 days
Outline: as §1

[11] = test system: velvetleaf (Abutilon theophrasti); experiment: Test B postemergence; conditions: 13 to 15 days
Outline: as §1

[12] = test system: wheat (Triticum aestivum); experiment: Test B postemergence; conditions: 13 to 15 days
Outline: as §1

wild oat (Avena fatua) = experiment: Test B postemergence; conditions: 13 to 15 days
Outline: as §1

Sunflower [13] = experiment: Test C preemergence
[14] = test system: bermudagrass (Cynodon dactylon); experiment: Test C preemergence; conditions: for Plant response rating (0 to 100 where 0 is no effect and 100 is complete control), Bermudagrass: visual evaluation after 12 to 14 days
Outline: (§2)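 Formulation: non-phytotoxic solvent mix incl. surfactant. Pre: applied right after planting. Post: 1–4-leaf seedlings. Read: visual 0–100, day 12–14, greenhouse.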

corn (Zea mays) [15] = experiment: Test C preemergence; conditions: for Plant response rating (0 to 100), Corn: visual evaluation after 12 to 14 days
Outline: as §2

[16] = test system: giant foxtail (Setaria faberii); experiment: Test C preemergence; conditions: for Plant response rating (0 to 100), Foxtail, Giant: visual evaluation after 12 to 14 days
Outline: as §2

[17] = test system: johnsongrass (Sorghum halepense); experiment: Test C preemergence; conditions: for Plant response rating (0 to 100), Johnsongrass: visual evaluation after 12 to 14 days
Outline: as §2

kochia (Kochia scoparia) = experiment: Test C preemergence; conditions: for Plant response rating (0 to 100), Kochia: visual evaluation after 12 to 14 days
Outline: as §2

[18] = test system: morningglory (Ipomoea hederacea); experiment: Test C preemergence; conditions: for Plant response rating (0 to 100), Morningglory: visual evaluation after 12 to 14 days
Outline: as §2

[19] = test system: velvetleaf (Abutilon theophrasti); experiment: Test C preemergence; conditions: for Plant response rating (0 to 100), Velvetleaf: visual evaluation after 12 to 14 days
Outline: as §2

[20] = test system: yellow nutsedge (Cyperus esculentus); experiment: Test C preemergence; conditions: for Plant response rating (0 to 100), Nutsedge: visual evaluation after 12 to 14 days
Outline: as §2

Sunflower [21] = experiment: Test C preemergence; conditions: visual evaluation after 12 to 14 days
[22] = Rate 125 g/ha, scale 0 (no effect) to 100 (complete control)
[23] = Rate 500 g/ha, scale 0 to 100, 0 is no effect, 100 is complete control
[24] = Rate 125 g/ha, scale 0 to 100, 0 no effect, 100 complete control
[25] = preemergence, Rate 62 g/ha, scale 0 to 100
[26] = preemergence, Rate 250 g/ha, scale 0 to 100, 0 no effect, 100 complete control
[27] = Rate 62 g/ha, scale 0 to 100, 0 no effect, 100 complete control
[28] = Preemergence, Rate 500 g/ha, scale 0 to 100
[29] = preemergence, Rate 125 g/ha, scale 0 to 100, 0 no effect, 100 complete control

## CCCOc1cc(N2CCC(n3ccc(C(C)(C)C)n3)C2=O)ccc1C (stereo not drawn) [Compound 107]
[1]; [22]
  Plant response rating, Surinam grass: 0
[1]; [23]
  Plant response rating, Surinam grass: 0
[2]; [22]
  Plant response rating, Barnyardgrass: 0
[2]; [23]
  Plant response rating, Barnyardgrass: 0
[3]; [22]
  Plant response rating, Blackgrass: 0
[3]; [23]
  Plant response rating, Blackgrass: 0
[4]; [22]
  Plant response rating, Cocklebur: 70
[4]; [23]
  Plant response rating, Cocklebur: 100
Corn (Zea mays) [5]; [22]
  Plant response rating, Corn: 0
Corn (Zea mays) [5]; [23]
  Plant response rating, Corn: 0
[6]; [22]
  Plant response rating, Crabgrass: 0
[6]; [23]
  Plant response rating, Crabgrass: 0
[7]; [22]
  Plant response rating, Foxtail, Giant: 0
[7]; [23]
  Plant response rating, Foxtail, Giant: 0
[8]; [23]
  Plant response rating, Lambsquarters: 100
[9]; [23]
  Plant response rating, Morningglory: 70
[10]; [23]
  Plant response rating, Pigweed: 90
[11]; [23]
  Plant response rating, Velvetleaf: 70
[12]; [23]
  Plant response rating, Wheat: 0
Wild oat (Avena fatua); [23]
  Plant response rating, Wild Oat: 0
Sunflower [13]; [24]
  Plant response rating, Sunflower: 0
[14]; [24]
  Plant response rating, Bermudagrass: 100
[14]; [25]
  Plant response rating, Bermudagrass: 85
[14]; preemergence, Rate 500 g/ha
  Plant response rating (0 to 100 where 0 is no effect and 100 is complete control), Bermudagrass: 100
[14]; [26]
  Plant response rating, Bermudagrass: 100
Corn (Zea mays) [15]; [24]
  Plant response rating, Corn: 0
Corn (Zea mays) [15]; [25]
  Plant response rating, Corn: 0
Corn (Zea mays) [15]; preemergence, Rate 500 g/ha
  Plant response rating (0 to 100), Corn: 10
Corn (Zea mays) [15]; [26]
  Plant response rating, Corn: 0
[16]; [24]
  Plant response rating, Foxtail, Giant: 100
[16]; [25]
  Plant response rating, Foxtail, Giant: 100
[16]; preemergence, Rate 500 g/ha
  Plant response rating (0 to 100), Foxtail, Giant: 100
[16]; [26]
  Plant response rating, Foxtail, Giant: 100
[17]; [24]
  Plant response rating, Johnsongrass: 20
[17]; preemergence, Rate 500 g/ha
  Plant response rating (0 to 100), Johnsongrass: 50
[17]; [26]
  Plant response rating, Johnsongrass: 50
Kochia (Kochia scoparia); [24]
  Plant response rating, Kochia: 70
Kochia (Kochia scoparia); [25]
  Plant response rating, Kochia: 70
Kochia (Kochia scoparia); preemergence, Rate 500 g/ha
  Plant response rating (0 to 100), Kochia: 100
Kochia (Kochia scoparia); [26]
  Plant response rating, Kochia: 85
[18]; [24]
  Plant response rating, Morningglory: 0
[18]; [25]
  Plant response rating, Morningglory: 0
[18]; preemergence, Rate 500 g/ha
  Plant response rating (0 to 100), Morningglory: 100
[18]; [26]
  Plant response rating, Morningglory: 0
[19]; [24]
  Plant response rating, Velvetleaf: 50
[19]; [25]
  Plant response rating, Velvetleaf: 40
[19]; preemergence, Rate 500 g/ha
  Plant response rating (0 to 100), Velvetleaf: 100
[19]; [26]
  Plant response rating, Velvetleaf: 50
[20]; [24]
  Plant response rating, Nutsedge: 0
[20]; [25]
  Plant response rating, Nutsedge: 0
[20]; preemergence, Rate 500 g/ha
  Plant response rating (0 to 100), Nutsedge: 0
[20]; [26]
  Plant response rating, Nutsedge: 0
Sunflower [21]; Rate 500 g/ha
  Plant response rating (0 to 100), Sunflower: 70

## O=C1C(n2ccc(C3CCCCC3)n2)SCN1c1cccc(OC(F)(F)F)c1 (stereo not drawn) [Compound 50]
[1]; [22]
  Plant response rating, Surinam grass: 0
[1]; [23]
  Plant response rating, Surinam grass: 0
[2]; [22]
  Plant response rating, Barnyardgrass: 0
[2]; [23]
  Plant response rating, Barnyardgrass: 90
[3]; [22]
  Plant response rating, Blackgrass: 0
[3]; [23]
  Plant response rating, Blackgrass: 0
[4]; [22]
  Plant response rating, Cocklebur: 0
[4]; [23]
  Plant response rating, Cocklebur: 50
Corn (Zea mays) [5]; [22]
  Plant response rating, Corn: 0
Corn (Zea mays) [5]; [23]
  Plant response rating, Corn: 0
[6]; [22]
  Plant response rating, Crabgrass: 30
[6]; [23]
  Plant response rating, Crabgrass: 50
[7]; [22]
  Plant response rating, Foxtail, Giant: 0
[7]; [23]
  Plant response rating, Foxtail, Giant: 50
[8]; [22]
  Plant response rating, Lambsquarters: 70
[8]; [23]
  Plant response rating, Lambsquarters: 80
[9]; [22]
  Plant response rating, Morningglory: 0
[9]; [23]
  Plant response rating, Morningglory: 0
[10]; [22]
  Plant response rating, Pigweed: 0
[10]; [23]
  Plant response rating, Pigweed: 0
[11]; [22]
  Plant response rating, Velvetleaf: 0
[11]; [23]
  Plant response rating, Velvetleaf: 0
[12]; [22]
  Plant response rating, Wheat: 0
[12]; [23]
  Plant response rating, Wheat: 0
Wild oat (Avena fatua); [22]
  Plant response rating, Wild Oat: 0
Wild oat (Avena fatua); [23]
  Plant response rating, Wild Oat: 0
Sunflower [13]; [27]
  Plant response rating, Sunflower: 20
Sunflower [13]; Rate 500 g/ha, scale 0 to 100
  Plant response rating, Sunflower: 60
[14]; [28]
  Plant response rating, Bermudagrass: 100
[14]; [27]
  Plant response rating, Bermudagrass: 100
[14]; preemergence, Rate 250 g/ha
  Plant response rating (0 to 100 where 0 is no effect and 100 is complete control), Bermudagrass: 100
[14]; [29]
  Plant response rating, Bermudagrass: 100
Corn (Zea mays) [15]; [28]
  Plant response rating, Corn: 0
Corn (Zea mays) [15]; [27]
  Plant response rating, Corn: 0
Corn (Zea mays) [15]; preemergence, Rate 250 g/ha
  Plant response rating (0 to 100), Corn: 0
Corn (Zea mays) [15]; [29]
  Plant response rating, Corn: 0
[16]; [28]
  Plant response rating, Foxtail, Giant: 100
[16]; [27]
  Plant response rating, Foxtail, Giant: 60
[16]; preemergence, Rate 250 g/ha
  Plant response rating (0 to 100), Foxtail, Giant: 20
[16]; [29]
  Plant response rating, Foxtail, Giant: 0
[17]; [28]
  Plant response rating, Johnsongrass: 90
[17]; [27]
  Plant response rating, Johnsongrass: 0
[17]; preemergence, Rate 250 g/ha
  Plant response rating (0 to 100), Johnsongrass: 70
[17]; [29]
  Plant response rating, Johnsongrass: 40
Kochia (Kochia scoparia); [28]
  Plant response rating, Kochia: 20
Kochia (Kochia scoparia); [27]
  Plant response rating, Kochia: 0
Kochia (Kochia scoparia); preemergence, Rate 250 g/ha
  Plant response rating (0 to 100), Kochia: 0
Kochia (Kochia scoparia); [29]
  Plant response rating, Kochia: 0
[18]; [28]
  Plant response rating, Morningglory: 30
[18]; [27]
  Plant response rating, Morningglory: 20
[18]; preemergence, Rate 250 g/ha
  Plant response rating (0 to 100), Morningglory: 30
[18]; [29]
  Plant response rating, Morningglory: 30
[19]; [28]
  Plant response rating, Velvetleaf: 0
[19]; [27]
  Plant response rating, Velvetleaf: 0
[19]; preemergence, Rate 250 g/ha
  Plant response rating (0 to 100), Velvetleaf: 0
[19]; [29]
  Plant response rating, Velvetleaf: 0
[20]; [28]
  Plant response rating, Nutsedge: 70
[20]; [27]
  Plant response rating, Nutsedge: 0
[20]; preemergence, Rate 250 g/ha
  Plant response rating (0 to 100), Nutsedge: 0
[20]; [29]
  Plant response rating, Nutsedge: 0
Sunflower [21]; Rate 250 g/ha
  Plant response rating (0 to 100), Sunflower: 30
